Assay results as given in patent publication US10710992B2, “Substituted pyridinones as bromodomain inhibitors” (Zenith Epigenetics Ltd., priority 2014, dated 2020).

Legend:
[1] = target: T1, Brd4 bromodomain 1 (BRD4(1)) (Homo sapiens, UniProt O60885); experiment: Inhibition of tetra-acetylated histone H4 binding to BET bromodomain (HTRF/FRET); conditions: His-tagged bromodomain 200 nM, tetra-acetylated histone H4 peptide, 2 h room temperature
T1 construct: made in house; host or cells: E. coli BL21(DE3)
Experimental: Proteins were cloned and overexpressed with a N-terminal 6× His tag, then purified by nickel affinity followed by size exclusion chromatography. Briefly, E. coli BL21(DE3) cells were transformed with a recombinant expression vector encoding N-terminally Nickel affinity tagged bromodomains from Brd2, Brd3, Brd4. Cell cultures were incubated at 37° C. with shaking to the appropriate density and induced overnight with IPTG. The supernatant of lysed cells was loaded onto Ni-IDA column for purification. Eluted protein was pooled, concentrated and further purified by size exclusion chromatography. Fractions representing monomeric protein were pooled, concentrated, aliquoted, and frozen at −80° C. for use in subsequent experiments.
Binding of tetra-acetylated histone H4 and BET bromodomains was confirmed by a Homogenous Time Resolved Fluorescence Resonance Energy Transfer (HTRF®) method. N-terminally His-tagged bromodomains (200 nM) and biotinylated tetra-acetylated historic H4 peptide (25-50 nM, Millipore) were incubated in the presence of Europium Cryptate-labeled streptavidin (Cisbio Cat. #610SAKLB) and XL665-labeled monoclonal anti-His antibody (Cisbio Cat. #61HISXLB) in a white 96 well microtiter plate (Greiner). For inhibition assays, serially diluted test compound was added to these reactions in a 0.2% final concentration of DMSO. Duplicate wells were used for each concentration tested. Final buffer concentrations were 30 mM HEPES pH 7.4, 30 mM NaCl, 0.3 mM CHAPS, 20 mM phosphate pH 7.0, 320 mM KF, 0.08% BSA. After a 2 h incubation at room temperature, fluorescence was measured at 665 and 620 nm with a SynergyH4 plate reader (Biotek). The binding inhibitory activity was shown by a decrease in 665 nm relative to […] fluorescence. IC50 values were determined from a dose response curve.

[2] = system: c-myc in Human AML MV4-11 cells; experiment: Inhibition of cMYC expression in cancer cell lines (mRNA, real-time PCR); type: cell-based; conditions: Homo sapiens, 3 h, cMYC mRNA normalized to Cyclophilin
Experimental: MV4-11 cells (CRL-9591) were plated at a density of 2.5×10^4 cells per well in 96 well U-bottom plates and treated with increasing concentrations of test compound or DMSO (0.1%) in IMDM media containing 10% FBS and penicillin/streptomycin, and incubated for 3 h at 37° C. Triplicate wells were used for each concentration. Cells were pelleted by centrifugation and harvested using the mRNA Catcher PLUS kit according to manufacturer's instructions. The eluted mRNA isolated was then used in a one-step quantitative real-time PCR reaction, using components of the RNA UltraSense™ One-Step Kit (Life Technologies) together with Applied Biosystems TaqMan® primer-probes for cMYC and Cyclophilin. Real-time PCR plates were run on a ViiA™ 7 real time PCR machine (Applied Biosystems), data was analyzed, normalizing the Ct values for cMYC to an internal control, prior to determining the fold expression of each sample, relative to the control.

[3] = system: hIL-6 mRNA; experiment: Inhibition of hIL-6 mRNA transcription in LPS-stimulated U937 cells; type: cell-based; conditions: Homo sapiens, U-937; PMA-differentiated U937 cells, 1 h pretreatment, LPS 1 ug/mL, 3 h; read-out: IL-6 activity
Experimental: Human leukemic monocyte lymphoma U937 cells (CRL-1593.2) were plated at a density of 3.2×10^4 cells per well in a 96-well plate in 100 μL RPMI-1640 containing 10% FBS and penicillin/streptomycin, and differentiated into macrophages for 3 days in 60 ng/mL PMA ([…]) at 37° C. in 5% CO2 prior to the addition of compound. The cells were pretreated for 1 h with increasing concentrations of test compound in 0.1% DMSO prior to stimulation with 1 ug/mL lipopolysaccharide from Escherichia coli. Triplicate wells were used for each concentration. The cells were incubated at 37° C., 5% CO2 for 3 h before the cells were harvested. At time of harvest, media was removed and cells were rinsed in 200 μL PBS. Cells were harvested using the mRNA Catcher PLUS kit according to manufacturer's instructions. The eluted mRNA was then used in a one-step quantitative real-time PCR reaction using components of the RNA UltraSense™ One-Step Kit (Life Technologies) together with Applied Biosystems TaqMan® primer-probes for hIL-6 and Cyclophilin. Real-time PCR plates were run on a ViiA™ 7 real time PCR machine (Applied Biosystems), data was analyzed, normalizing the Ct values for hIL-6 to an internal control, prior to determining the fold expression of each sample, relative to the control.

[4] = system: hApoA-1 mRNA; experiment: Up-regulation of hApoA-1 mRNA transcription in Huh7 cells; type: cell-based, Human; conditions: EC170, Huh7 cells, 48 h
Experimental: In this example, hApoA-1 mRNA in tissue culture cells was quantitated to measure the transcriptional up-regulation of hApoA-1 when treated with a compound of the present disclosure.
Huh7 cells (2.5×10^5 per well) were plated in a 96-well plate using 100 μL DMEM per well, (Gibco DMEM supplemented with penicillin streptomycin and 10% FBS), 72 h before the addition of the compound. The cells are treated with increasing concentrations of the compound or DMSO (0.1%), and incubated at 37° C., 5% CO2 for 48 h. Spent media was removed from the Huh-7 cells and placed on ice for immediate use with the “LDH cytotoxicity assay Kit II” from Abcam. The cells remaining in the plate were rinsed with 100 μL PBS. Cells were harvested using the mRNA Catcher PLUS kit according to manufacturer's instructions. The eluted mRNA was then used in a one-step quantitative real-time PCR reaction, using components of the RNA UltraSense™ One-Step Kit (Life Technologies) together with Applied Biosystems TaqMan® primer-probes for hApoA-1 and Cyclophilin. Real-time PCR plates were run on a ViiA™ 7 real time PCR machine (Applied Biosystems), data was analyzed, normalizing the Ct values for hApoA-1 to an internal control, prior to determining the fold induction of each unknown sample, relative to the control.

[5] = system: Human AML MV-4-11 cells; experiment: Inhibition of cell proliferation in cancer cell lines (CellTiter Aqueous One); type: cell-based; conditions: Homo sapiens; MV4-11 cells, 72 h
Experimental: MV4-11 cells (CRL-9591) were plated at a density of 5×10^4 cells per well in 96 well flat bottom plates and treated with increasing concentrations of test compound or DMSO (0.1%) in IMDM media containing 10% FBS and penicillin/streptomycin. Triplicate wells were used for each concentration and a well containing only media was used as a control. Plates were incubated at 37° C., 5% CO2 for 72 h before adding 20 μL of the CellTiter Aqueous One Solution (Promega) to each well and incubated at 37° C., 5% CO2 for an additional 3-4 h. The absorbance was read at 490 nm in a spectrophotometer and the percentage of cell titer relative to DMSO-treated cells was calculated after correcting for background by subtracting the blank well's signal. IC50 values were calculated using the GraphPad Prism software.

IC50 [1] [µM] | IC50 [3] [µM] | IC50 [5] [µM] | SMILES | IC50 [2] [µM] | ApoA-1 activity [4]
0.3 to 3 | 0.3 to 3 | 3 to 30 | Cc1noc(C)c1-c1c[nH]c(=O)c(Nc2ccccc2)c1 [Example 1, 5-(3,5-dimethylisoxazol-4-yl)-3-(phenylamino)pyridin-2(1H)-one] | 3 to 30 | ++ (EC170 value between 0.3 and 3 μM were deemed to be very active (++))
3 to 30 | 3 to 30 |  | Cc1noc(C)c1-c1c[nH]c(=O)c(Nc2cccnc2)c1 [Example 2, 5-(3,5-dimethylisoxazol-4-yl)-3-(pyridin-3-ylamino)pyridin-2(1H)-one] |  | + (EC170 value between 3 and 30 μM were deemed to be active (+))
